Reference: US5254558A, “Substituted 1,3-diazines as leukocyte elastase inhibitors” (Imperial Chemical Industries PLC, priority 1991, dated 1993)

Assays:
HLE = assay: in vivo tests (Acute Lung Injury Model, Acute Hemorrhagic Assay); conditions: basis for compounds of particular interest
[1] = biological target: T1, human leukocyte elastase (HLE) (Homo sapiens, UniProt P08246); assay: Inhibition measurements: Ki against HLE on substrate methoxy-succinyl-alanyl-alanyl-prolyl-valine-p-nitroanilide; format: biochemical; conditions: read-out: Ki, dissociation constant of the complex of inhibitor with HLE
T1 sequence (P08246 30-247 limits assumed): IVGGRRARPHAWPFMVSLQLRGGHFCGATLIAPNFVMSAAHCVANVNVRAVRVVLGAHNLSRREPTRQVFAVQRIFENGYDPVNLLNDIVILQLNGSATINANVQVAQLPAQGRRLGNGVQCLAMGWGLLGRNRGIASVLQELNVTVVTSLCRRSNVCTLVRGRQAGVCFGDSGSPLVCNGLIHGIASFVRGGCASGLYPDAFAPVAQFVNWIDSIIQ
Description: The potency of a Compound to act as an inhibitor of human leukocyte elastase (HLE) on the low molecular weight peptide substrate methoxy-succinyl-alanyl-alanyl-prolyl-valine-p-nitroanilide is determined as described in U.S. Pat. No. 4,910,190. The potency of an inhibitor is evaluated by obtaining a kinetic determination of the dissociation constant, Ki, of the complex formed from the interaction of the inhibitor with HLE. If a Compound is found to be a "slow-binding" inhibitor of HLE, special methods of analysis to accurately determine Ki values for the inhibition of HLE are carried out as described in U.S. Pat. No. 4,910,190. In general, the Ki values for Compounds of the invention which were tested are generally on the order of 10^-7 M or much less.

[2] = test system: human neutrophil elastase (HNE); assay: Acute Hemorrhagic Assay: lung hemorrhage after intratracheal HNE in hamsters; format: in vivo, hamster; conditions: 2.5 mg/kg by mouth, male Syrian hamsters
Description: This assay relies on monitoring only the amount of hemorrhage in the lung following intratracheal administration of human neutrophil elastase (HNE). Hemorrhage is quantified by disrupting erythrocytes recovered in lung lavage fluid and comparing that to dilutions of whole hamster blood. The screening protocol, similar to that described in Fletcher et al., American Review of Respiratory Disease (1990), 141, 672-677, is as follows. […] The compounds are then dosed by mouth to male Syrian hamsters at a fixed time, such as 30 or 90 min, prior to intratracheal administration of 50 μg/animal of HNE in 300 μL phosphate buffered saline (PBS) pH 7.4. Four hours enzyme administration, the animals are killed with an overdose of pentobarbital sodium, the thorax opened and the lungs and trachea removed. […] The recovered lavages are pooled, the volumes (about 5 mL) are recorded and the lavages stored at 4° C. until assayed. […] The optical densities (OD) of the disrupted lavages and blood samples are determined at 405 nm. The (μL blood equivalents)/(mL lavage) are determined by comparing the OD of the test samples with the OD of the standard curve prepared from whole hamster blood. The total μL equivalents of blood recovered is determined by multiplying recovered lavage volume by the (μL blood equivalents)/(mL lavage) for each sample. […]

CSC(=O)Nc1cnc(-c2ccc(F)cc2)n(CC(=O)NC(C(=O)C(F)(F)F)C(C)C)c1=O (centres unmarked) [Example 102]
activity in in vivo tests (HLE): activity in in vivo tests

CC(C)C(NC(=O)Cn1c(-c2cccs2)ncc(N)c1=O)C(=O)C(F)(F)F (centres unmarked) [Example 12, 2-[5-Amino-6-oxo-2-(2-thienyl)-1,6-dihydro-1-pyrimidinyl]-N-(3,3,3-trifluoro-1-isopropyl-2-oxopropyl)acetamide]
activity in in vivo tests (HLE): activity in in vivo tests

CSC(=O)Nc1cnc(-c2ccccc2)n(CC(=O)NC(C(=O)C(F)(F)F)C(C)C)c1=O (centres unmarked) [Example 100]
activity in in vivo tests (HLE): activity in in vivo tests

CC(C)C(NC(=O)Cn1c(-c2ccccc2)ncc(NC=O)c1=O)C(=O)C(F)(F)F (centres unmarked) [Example 159]
activity in in vivo tests (HLE): activity in in vivo tests

CC(C)C(NC(=O)Cn1c(-c2cccs2)ncc(NC=O)c1=O)C(=O)C(F)(F)F (centres unmarked) [Example 157]
activity in in vivo tests (HLE): activity in in vivo tests

CC(C)C(NC(=O)Cn1c(-c2cccs2)ncc(NC(=O)OCC(F)(F)F)c1=O)C(=O)C(F)(F)F (centres unmarked) [Example 106]
activity in in vivo tests (HLE): activity in in vivo tests

CCNc1cnc(-c2cccs2)n(CC(=O)NC(C(=O)C(F)(F)F)C(C)C)c1=O (centres unmarked) [Example 82]
activity in in vivo tests (HLE): activity in in vivo tests

CC(C)OC(=O)Nc1cnc(-c2cccs2)n(CC(=O)NC(C(=O)C(F)(F)F)C(C)C)c1=O (centres unmarked) [Example 51]
Ki [1]: 27 nM | inhibition of hemorrhage ([2]; 30 min prior to HNE): statistically significant inhibition of hemorrhage | inhibition of hemorrhage ([2]; 90 min prior to HNE): statistically significant inhibition of hemorrhage | activity in in vivo tests (HLE): activity in in vivo tests
